Several values for one entry are separate records, joined by “and”; a condition that tells them apart may be missing. Equal values may be shown once. Toxic doses and inconclusive results are not listed. The calls were made as follows: active = survival T/C of 150% or more; inactive = T/C below 125% in these data.
System: BDF1 mice, B16 melanoma ip, median survival T/C
Experiment: NCI In Vivo Anticancer Drug Screen. Data for tumor model B16 Melanoma (intraperitoneal) in B6D2F1 (BDF1) mice
Settings: endpoint: median survival time, higher = longer survival
Experimental: The antitumor activity of compounds was measured in mice bearing transplantable tumors. Survival or tumor size were measured and the results are expressed as the measurement made in the treated group (T) divided by the measurement made in the vehicle treated control group (C). The tumor model used in this assay is B16 Melanoma (intraperitoneal) in B6D2F1 (BDF1) mice

[1] = dose: 6.25 mg/kg/injection, schedule: Q01DX009 (ip), vehicle: saline with Tween-80
[2] = dose: 12.5 mg/kg/injection, schedule: Q01DX009 (ip), vehicle: saline with Tween-80
[3] = dose: 100.0 mg/kg/injection, schedule: Q01DX009 (ip), vehicle: saline with Tween-80
[4] = dose: 25.0 mg/kg/injection, schedule: Q01DX009 (ip), vehicle: saline with Tween-80
[5] = dose: 50.0 mg/kg/injection, schedule: Q01DX009 (ip), vehicle: saline with Tween-80
[6] = dose: 100.0 mg/kg/injection, schedule: Q01DX009 (ip), vehicle: Klucel (hydroxypropylcellulose) (HPC)
[7] = dose: 12.5 mg/kg/injection, schedule: Q01DX009 (ip), vehicle: Klucel (hydroxypropylcellulose) (HPC)
[8] = dose: 25.0 mg/kg/injection, schedule: Q01DX009 (ip), vehicle: Klucel (hydroxypropylcellulose) (HPC)
[9] = dose: 50.0 mg/kg/injection, schedule: Q01DX009 (ip), vehicle: Klucel (hydroxypropylcellulose) (HPC)
[10] = dose: 6.25 mg/kg/injection, schedule: Q01DX009 (ip), vehicle: Klucel (hydroxypropylcellulose) (HPC)
[11] = dose: 6.25 mg/kg/injection, schedule: Q01DX009 (ip), vehicle: saline
[12] = dose: 100.0 mg/kg/injection, schedule: Q04DX003 (ip), vehicle: Klucel (hydroxypropylcellulose) (HPC)
[13] = dose: 200.0 mg/kg/injection, schedule: Q04DX003 (ip), vehicle: Klucel (hydroxypropylcellulose) (HPC)
[14] = dose: 400.0 mg/kg/injection, schedule: Q04DX003 (ip), vehicle: Klucel (hydroxypropylcellulose) (HPC)
[15] = dose: 12.5 mg/kg/injection, schedule: Q01DX009 (ip), vehicle: water
[16] = dose: 25.0 mg/kg/injection, schedule: Q01DX009 (ip), vehicle: water
[17] = dose: 50.0 mg/kg/injection, schedule: Q01DX009 (ip), vehicle: water
[18] = dose: 100.0 mg/kg/injection, schedule: Q01DX009 (ip), vehicle: water
[19] = dose: 200.0 mg/kg/injection, schedule: Q01DX009 (ip), vehicle: Klucel (hydroxypropylcellulose) (HPC)
[20] = dose: 400.0 mg/kg/injection, schedule: Q01DX009 (ip), vehicle: Klucel (hydroxypropylcellulose) (HPC)

Measured: T/C

c1ccc2c(c1)nnn1c3cnccc3nc21
inactive: dose: 1.56 mg/kg/injection, schedule: Q01DX009 (ip), vehicle: saline with Tween-80 110 % of control | dose: 3.12 mg/kg/injection, schedule: Q01DX009 (ip), vehicle: saline with Tween-80 97 % of control and 111 % of control | [1] 93 % of control and 107 % of control | [2] 106 % of control and 121 % of control

COc1ccc(NC(=O)Nc2ccccc2OC)cc1
inactive: [3] 102 % of control | dose: 200.0 mg/kg/injection, schedule: Q01DX009 (ip), vehicle: saline with Tween-80 115 % of control | dose: 400.0 mg/kg/injection, schedule: Q01DX009 (ip), vehicle: saline with Tween-80 101 % of control

COC1C(O)C(C)OC(OC2C(Oc3cccc4c(O)c5c(=O)oc6ccc(C)c7c(=O)oc(c34)c5c67)OC(C)C(O)C2O)C1O (stereo not drawn)
active: [4] 183 % of control | dose: 50.0 mg/kg/injection, schedule: Q01DX009 (ip), vehicle: carboxymethylcellulose (CMC) 179 % of control | [5] 199 % of control | dose: 100.0 mg/kg/injection, schedule: Q01DX009 (ip), vehicle: carboxymethylcellulose (CMC) 206 % of control | [3] 185 % of control
inactive: dose: 16.0 mg/kg/injection, schedule: Q04DX003 (ip), vehicle: saline with Tween-80 107 % of control | dose: 32.0 mg/kg/injection, schedule: Q04DX003 (ip), vehicle: saline with Tween-80 101 % of control | dose: 64.0 mg/kg/injection, schedule: Q04DX003 (ip), vehicle: saline with Tween-80 122 % of control | [6] 119 % of control | dose: 128.0 mg/kg/injection, schedule: Q04DX003 (ip), vehicle: saline with Tween-80 119 % of control

COC(=O)c1ccc(-c2ccccc2)cc1
inactive: [7] 93 % of control | [8] 88 % of control | [9] 97 % of control | [6] 93 % of control

Cc1ccc(NC(=O)Oc2ccc(Br)cc2Br)c([N+](=O)[O-])c1
inactive: [2] 97 % of control | [4] 92 % of control | [5] 86 % of control

N#CCC(=O)O
inactive: dose: 18.75 mg/kg/injection, schedule: Q01DX009 (ip), vehicle: saline 109 % of control | dose: 37.5 mg/kg/injection, schedule: Q01DX009 (ip), vehicle: saline 97 % of control

O=C(NCCN1CC1)C(=O)NCCN1CC1
active: dose: 1.5 mg/kg/injection, schedule: Q01DX009 (ip), vehicle: saline with Tween-80 153 % of control | dose: 3.12 mg/kg/injection, schedule: Q04DX003 (ip), vehicle: saline with Tween-80 178 % of control | dose: 6.25 mg/kg/injection, schedule: Q04DX003 (ip), vehicle: saline with Tween-80 168 % of control

CCc1ncnc2cc(OCC3CO3)c(OC)cc12 (stereo not drawn)
inactive: [1] 109 % of control | dose: 20.0 mg/kg/injection, schedule: Q04DX003 (ip), vehicle: other 114 % of control
active: dose: 25.0 mg/kg/injection, schedule: Q01DX009 (ip), vehicle: saline 154 % of control

O=S(c1ccccc1)c1c(Cl)c(Cl)nc(Cl)c1Cl (stereo not drawn)
inactive: [10] 94 % of control | [7] 100 % of control

CCc1nc(N)nc(N)c1-c1ccc(Cl)c(Cl)c1.[Cl][Pd][Cl]
inactive: [11] 97 % of control

CCCc1c(C)[nH]c2ccccc12
inactive: [12] 94 % of control | [13] 100 % of control | [14] 88 % of control

O=[N+]([O-])c1ccc2scc3c4ccccc4nc-3c2c1
inactive: [11] 90 % of control | dose: 12.5 mg/kg/injection, schedule: Q01DX009 (ip), vehicle: saline 99 % of control

CNNCc1ccc(/C=N/NC(N)=S)cc1
inactive: [15] 105 % of control | [16] 100 % of control | [17] 99 % of control | [18] 97 % of control

CCN(CC)CCCC(C)NS(=O)(=O)c1cccc2c(N(C)C)cccc12 (stereo not drawn)
inactive: dose: 6.25 mg/kg/injection, schedule: Q01DX009 (ip), vehicle: water 104 % of control | [15] 104 % of control | [16] 97 % of control | [17] 98 % of control | [18] 92 % of control

Cc1c(CNc2ccc(C(=O)NC(CC(=O)O)C(=O)O)cc2)ccc2nc(N)nc(N)c12 (stereo not drawn)
inactive: dose: 0.02 mg/kg/injection, schedule: Q01DX009 (ip), vehicle: saline with Tween-80 94 % of control | dose: 0.04 mg/kg/injection, schedule: Q01DX009 (ip), vehicle: saline with Tween-80 94 % of control | dose: 0.04 mg/kg/injection, schedule: Q01DX009 (ip), vehicle: saline 103 % of control | dose: 0.09 mg/kg/injection, schedule: Q01DX009 (ip), vehicle: saline with Tween-80 86 % of control | dose: 0.09 mg/kg/injection, schedule: Q01DX009 (ip), vehicle: saline 100 % of control | dose: 0.18 mg/kg/injection, schedule: Q01DX009 (ip), vehicle: saline with Tween-80 97 % of control | dose: 0.19 mg/kg/injection, schedule: Q01DX009 (ip), vehicle: saline 111 % of control | dose: 0.78 mg/kg/injection, schedule: Q01DX009 (ip), vehicle: saline with Tween-80 118 % of control

Cc1ccc(NS(=O)(=O)c2ccc(F)cc2)cc1Cl
inactive: [6] 90 % of control | [12] 103 % of control | [19] 100 % of control | [13] 100 % of control | [20] 86 % of control | [14] 110 % of control

CCCCCCCCCCCCOCCOCCOCC(N)=O
inactive: dose: 100.0 mg/kg/injection, schedule: Q01DX009 (ip), vehicle: saline 112 % of control | dose: 200.0 mg/kg/injection, schedule: Q01DX009 (ip), vehicle: saline 109 % of control | dose: 400.0 mg/kg/injection, schedule: Q01DX009 (ip), vehicle: saline 90 % of control

CNC(=S)N/N=C/CCC/C=N/NC(=S)NC
inactive: dose: 15.9 mg/kg/injection, schedule: Q01DX009 (ip), vehicle: saline with Tween-80 88 % of control | dose: 31.8 mg/kg/injection, schedule: Q01DX009 (ip), vehicle: saline with Tween-80 92 % of control

Cc1c2ccccc2c(C)c2c1ccc1ccccc12
inactive: dose: 2.0 mg/kg/injection, schedule: Q01DX009 (ip), vehicle: saline with Tween-80 100 % of control | dose: 4.0 mg/kg/injection, schedule: Q01DX009 (ip), vehicle: saline with Tween-80 108 % of control | dose: 16.0 mg/kg/injection, schedule: Q01DX009 (ip), vehicle: saline with Tween-80 108 % of control

ClC=P(c1ccccc1)(c1ccccc1)c1ccccc1
inactive: [2] 90 % of control | [4] 90 % of control | dose: 33.0 mg/kg/injection, schedule: Q04DX003 (ip), vehicle: saline with Tween-80 91 % of control | [5] 92 % of control and 95 % of control | dose: 75.0 mg/kg/injection, schedule: Q04DX003 (ip), vehicle: saline with Tween-80 86 % of control
active: dose: 50.0 mg/kg/injection, schedule: Q04DX003 (ip), vehicle: saline with Tween-80 152 % of control

O=C1N(Cl)C(=O)C(c2ccc(Cl)cc2)(c2ccc(Cl)cc2)N1Cl
inactive: dose: 1.56 mg/kg/injection, schedule: Q01DX009 (ip), vehicle: Klucel (hydroxypropylcellulose) (HPC) 104 % of control | dose: 3.12 mg/kg/injection, schedule: Q01DX009 (ip), vehicle: Klucel (hydroxypropylcellulose) (HPC) 96 % of control | [10] 104 % of control | [7] 104 % of control | [8] 114 % of control and 101 % of control | dose: 25.0 mg/kg/injection, schedule: Q02DX009 (ip), vehicle: Klucel (hydroxypropylcellulose) (HPC) 103 % of control | [9] 112 % of control | dose: 50.0 mg/kg/injection, schedule: Q02DX009 (ip), vehicle: Klucel (hydroxypropylcellulose) (HPC) 99 % of control | [6] 118 % of control | dose: 100.0 mg/kg/injection, schedule: Q02DX009 (ip), vehicle: Klucel (hydroxypropylcellulose) (HPC) 106 % of control | [19] 117 % of control | dose: 200.0 mg/kg/injection, schedule: Q02DX009 (ip), vehicle: Klucel (hydroxypropylcellulose) (HPC) 96 % of control | [20] 118 % of control

Cc1ccc(N=P(c2ccccc2)(c2ccccc2)c2ccccc2)cc1
inactive: [6] 94 % of control | [19] 108 % of control | [20] 91 % of control
